The text below walks through data of paper PMC6300691, “Enhancement of Heat Stability and Kinetic Parameters of the Maize Endosperm ADP-Glucose Pyrophosphorylase by Mutagenesis of Amino Acids in the Small Subunit With High B Factors” (Frontiers in Plant Science, 2018).

What all share (test): Activation constant from initial rates with varied 3-PGA (0-1 mM) at 2 mM ATP and 2 mM G-1-P, pH 7.4, 15 mM MgCl2, fitted to V = Vmin + Vmax*X/(Ka + X).
Holding throughout (assay type): biochemical

The target of one experiment is T1, R331K (Zea mays, UniProt P55241+Q947C0, R331K).
T1 construct: BT2 variant with wild type SH2, E. coli, purified
The text has this:
(§1) All reactions were developed as above.

In another experiment the target is T2, E123G, R331K, L404H (Zea mays, UniProt P55241+Q947C0, E123G/R331K/L404H).
T2 construct: BT2 variant with wild type SH2, E. coli, purified
Excerpt: as §1

For another experiment, the target named is T3, L404H (Zea mays, UniProt P55241+Q947C0, L404H).
T3 construct: BT2 variant with wild type SH2, E. coli, purified
Excerpt: as §1

The target of experiment [1] is T4, E123G, R331K, K402R, L404H (Zea mays, UniProt P55241+Q947C0, E123G/R331K/K402R/L404H).
T4 construct: BT2 quadruple variant with wild type SH2, E. coli, purified
Excerpt: as §1

The target of another experiment is T5, R331P (Zea mays, UniProt P55241+Q947C0, R331P).
T5 construct: BT2 variant with wild type SH2, E. coli, purified
Excerpt: as §1

Another experiment concerns the target T6, SH2-ISM/BT2-BF (Zea mays, UniProt P55241+Q947C0, Q96G/E123G/D161G/R331K/K402R/A443R).
T6 construct: SH2-ISM co-expressed with BT2-BF, E. coli, purified
T6 sequence (Q947C0 1-475 E123G/R331K/K402R): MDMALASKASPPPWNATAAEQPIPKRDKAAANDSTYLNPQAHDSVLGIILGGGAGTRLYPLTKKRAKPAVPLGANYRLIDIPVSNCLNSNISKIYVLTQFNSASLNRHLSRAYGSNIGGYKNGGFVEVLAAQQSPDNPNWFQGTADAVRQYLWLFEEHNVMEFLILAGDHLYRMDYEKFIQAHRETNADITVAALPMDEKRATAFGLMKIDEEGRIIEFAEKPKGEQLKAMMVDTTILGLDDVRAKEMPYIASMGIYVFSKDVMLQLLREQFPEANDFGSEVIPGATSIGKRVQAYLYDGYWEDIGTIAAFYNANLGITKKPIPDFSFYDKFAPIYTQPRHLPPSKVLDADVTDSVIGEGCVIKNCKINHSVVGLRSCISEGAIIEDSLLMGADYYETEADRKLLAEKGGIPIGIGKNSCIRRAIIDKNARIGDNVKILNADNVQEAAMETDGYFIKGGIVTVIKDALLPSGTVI
T6 sequence (P55241 46-516 Q96G/D161G/A443R): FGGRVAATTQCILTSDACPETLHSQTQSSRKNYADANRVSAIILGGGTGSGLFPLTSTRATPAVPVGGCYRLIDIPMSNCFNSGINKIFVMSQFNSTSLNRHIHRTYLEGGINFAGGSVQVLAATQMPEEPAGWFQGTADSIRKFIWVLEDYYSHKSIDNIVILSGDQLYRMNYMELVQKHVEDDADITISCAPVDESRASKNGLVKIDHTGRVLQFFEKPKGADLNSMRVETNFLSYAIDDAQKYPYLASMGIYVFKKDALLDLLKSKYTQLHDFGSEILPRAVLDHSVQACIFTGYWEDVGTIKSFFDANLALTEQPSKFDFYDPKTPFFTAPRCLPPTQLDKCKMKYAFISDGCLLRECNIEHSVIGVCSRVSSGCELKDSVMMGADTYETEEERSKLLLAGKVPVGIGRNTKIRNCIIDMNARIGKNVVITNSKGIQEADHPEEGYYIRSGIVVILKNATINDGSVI
Excerpt: as §1

For another experiment, the target named is T7, E123V (Zea mays, UniProt P55241+Q947C0, E123V).
T7 construct: BT2 variant with wild type SH2, E. coli, purified
Excerpt: as §1

The next experiment has as its target T8, SH2-E/BT2-BF (Zea mays, UniProt P55241+Q947C0, E123G/N131R/T142F/A160T/Q261S/R331K/A396S/K402R/V416I/C424V/S444A).
T8 construct: SH2-E co-expressed with BT2-BF, E. coli, purified
T8 sequence (Q947C0 1-475 E123G/R331K/K402R): T6 sequence (Q947C0 1-475 E123G/R331K/K402R)
T8 sequence (P55241 46-516 N131R/T142F/A160T/Q261S/A396S/V416I/C424V/S444A): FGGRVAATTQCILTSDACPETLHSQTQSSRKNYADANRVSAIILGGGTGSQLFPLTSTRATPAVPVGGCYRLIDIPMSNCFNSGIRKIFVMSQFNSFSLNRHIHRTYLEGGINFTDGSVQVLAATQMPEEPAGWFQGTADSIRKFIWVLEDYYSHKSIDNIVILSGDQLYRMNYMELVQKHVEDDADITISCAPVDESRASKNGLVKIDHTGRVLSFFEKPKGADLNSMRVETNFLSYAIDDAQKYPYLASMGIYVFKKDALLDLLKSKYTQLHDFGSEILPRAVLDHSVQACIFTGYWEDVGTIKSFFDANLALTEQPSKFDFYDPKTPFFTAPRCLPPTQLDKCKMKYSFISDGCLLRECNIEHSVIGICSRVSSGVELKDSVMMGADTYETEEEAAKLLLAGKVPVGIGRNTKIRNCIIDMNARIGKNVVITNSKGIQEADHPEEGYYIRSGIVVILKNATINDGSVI
Excerpt: as §1

The next experiment has as its target T9, L404E (Zea mays, UniProt P55241+Q947C0, L404E).
T9 construct: BT2 variant with wild type SH2, E. coli, purified
Excerpt: as §1

The target in a further experiment is T10, L404K (Zea mays, UniProt P55241+Q947C0, L404K).
T10 construct: BT2 variant with wild type SH2, E. coli, purified
Excerpt: as §1

Another experiment addresses T11, K402R (Zea mays, UniProt P55241+Q947C0, K402R).
T11 construct: BT2 variant with wild type SH2, E. coli, purified
Excerpt: as §1

Experiment [2] has as its target T12, E123G, R331K, K402R (BT2-BF) (Zea mays, UniProt P55241+Q947C0, E123G/R331K/K402R).
T12 construct: BT2-BF with wild type SH2 (SH2-WT/BT2-BF), E. coli, purified
T12 sequence (Q947C0 1-475 E123G/R331K/K402R): T6 sequence (Q947C0 1-475 E123G/R331K/K402R)
T12 sequence (P55241 46-516): T6 sequence (P55241 46-516 Q96G/D161G/A443R) with G51Q, G116D, R398A
Excerpt: as §1

The structures appear in SMILES notation. Changes are numbered by the printed parent chain.

T11 sequence (Q947C0 1-475 K402R): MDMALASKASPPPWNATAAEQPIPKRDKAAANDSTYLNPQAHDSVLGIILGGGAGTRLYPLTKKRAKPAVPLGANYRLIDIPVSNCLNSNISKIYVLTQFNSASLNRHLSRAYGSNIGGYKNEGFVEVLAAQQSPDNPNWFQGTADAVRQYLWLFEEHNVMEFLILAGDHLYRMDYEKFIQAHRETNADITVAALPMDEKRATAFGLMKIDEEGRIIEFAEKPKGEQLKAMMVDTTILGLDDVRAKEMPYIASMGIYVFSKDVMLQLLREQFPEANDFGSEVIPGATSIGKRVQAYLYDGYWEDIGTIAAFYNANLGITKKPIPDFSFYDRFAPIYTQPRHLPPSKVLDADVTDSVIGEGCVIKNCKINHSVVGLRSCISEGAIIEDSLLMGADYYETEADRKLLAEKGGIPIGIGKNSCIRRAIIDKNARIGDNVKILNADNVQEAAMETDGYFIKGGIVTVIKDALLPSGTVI
T11 sequence (P55241 46-516): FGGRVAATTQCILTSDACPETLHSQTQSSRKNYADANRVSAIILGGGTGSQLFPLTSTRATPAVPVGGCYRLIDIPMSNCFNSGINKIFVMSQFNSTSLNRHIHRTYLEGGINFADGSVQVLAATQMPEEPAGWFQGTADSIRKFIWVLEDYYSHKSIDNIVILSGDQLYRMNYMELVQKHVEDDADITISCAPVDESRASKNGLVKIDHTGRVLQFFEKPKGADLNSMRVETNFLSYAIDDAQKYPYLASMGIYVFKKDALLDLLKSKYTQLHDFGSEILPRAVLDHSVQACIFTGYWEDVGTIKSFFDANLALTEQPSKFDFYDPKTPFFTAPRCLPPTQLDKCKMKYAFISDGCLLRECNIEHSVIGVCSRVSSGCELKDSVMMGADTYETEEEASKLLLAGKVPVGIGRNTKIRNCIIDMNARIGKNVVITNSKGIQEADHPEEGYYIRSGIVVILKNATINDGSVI
T4 sequence (Q947C0 1-475 E123G/R331K/K402R/L404H): as the sequence (Q947C0 1-475 K402R) above, with E123G, R331K, L404H counted along it
T2 sequence (Q947C0 1-475 E123G/R331K/L404H): as the sequence (Q947C0 1-475 K402R) above, with E123G, R331K, R402K, L404H counted along it
T9 sequence (Q947C0 1-475 L404E): as the sequence (Q947C0 1-475 K402R) above, with R402K, L404E counted along it
T10 sequence (Q947C0 1-475 L404K): as the sequence (Q947C0 1-475 K402R) above, with R402K, L404K counted along it
T1 sequence (Q947C0 1-475 R331K): as the sequence (Q947C0 1-475 K402R) above, with R331K, R402K counted along it
T3 sequence (Q947C0 1-475 L404H): as the sequence (Q947C0 1-475 K402R) above, with R402K, L404H counted along it
T7 sequence (Q947C0 entry or part of it E123V): as the sequence (Q947C0 1-475 K402R) above, with E123V, R402K counted along it
T5 sequence (Q947C0 1-475 R331P): as the sequence (Q947C0 1-475 K402R) above, with R331P, R402K counted along it

As for `O=C(O)[C@H](O)COP(=O)(O)O` [3-PGA, 3-phosphoglycerate (3-phosphoglyceric acid)], the “3-PGA Ka (activation constant)” value was 0.07 ± 0.008 on R331K; 0.059 ± 0.11 at E123G, R331K, L404H; 0.05 ± 0.008 at L404H; 0.11 ± 0.017 + in experiment [1]; 0.094 ± 0.013 at R331P; 0.23 ± 0.11 at SH2-ISM/BT2-BF. Further, the “3-PGA Ka (activation constant)” value was 0.10 ± 0.036 at E123V; 0.36 ± 0.09 at SH2-E/BT2-BF; 0.15 ± 0.014 on L404E; 0.14 ± 0.047 on L404K; 0.077 ± 0.014 at K402R; 0.060 ± 0.0097 in [2].
